Data taken from patent US20210353784A1, “DETECTING AND TREATING CANCERS USING CELL PENETRANT MTP53-OLIGOMERIZATION-DOMAIN PEPTIDE” (priority 2020, published 2021).
Like-named read-outs stand apart in the source and are kept apart here.

Columns and labels:
[1] = system: MDA-MB-468 cells compared to MCF7 cells; assay: Cy5p53Tet cellular uptake by live cell imaging (confocal, Nikon Element quantification); format: cell-based, Human; conditions: 500 nM, 2 h incubation; Nikon Element analysis
Procedure: Hoechst staining (blue) was used to stain the nuclei. Two independent experiments with biological replicates were performed.
FIG. 1D is a graph showing quantification of Cy5p53Tet uptake in MCF7 and MDA-MB-468 cells via Nikon Element analysis. At least 200 cells per sample were measured by fluorescence microscopy.
In vitro uptake, specificity, and toxicity assays were performed to gauge the potential of mtp53ODPs as imaging agents. Live cell imaging was performed to compare the ability of Cy5p53Tet to stain ER+MCF7 breast cancer cells that express wtp53 and MDA-MB-468 TNBC cells which express stable missense mtp53 R273H. Cy5p53Tet was anticipated to detect both wtp53 and mtp53, but because of the higher stability of mtp53, MDA-MB-468 cells were predicted to have a higher signal. The intensity of the Cy5p53Tet signal was clearly higher in the MDA-MB-468 cells compared to the MCF7 cells (FIG. 1B), a difference that correlated to the level of p53 expression as determined by Western blot (FIG. 1C). […] However, after a 2 h incubation with Cy5p53Tet, the colocalization was clearly evident with the Hoechst-stained DNA (Supplemental Illustration S3 in U.S. Provisional application 63/186,409).
Cy5p53Tet Cellular Uptake by Live Cell Imaging. Cells were seeded at 2×10^5 per well in a 12-well glass bottom plate 1 day before imaging (MatTek). […]

[2] = system: MDA-MB-468 cells compared to MCF7 cells; conditions: 2 h
Procedure: FlowJo software was used to analyze the cytometric data.
The cellular uptake of Cy5p53Tet in these two cell lines was also measured using flow cytometry.
In Vitro Cy5p53Tet Cellular Uptake by Flow Cytometry. Fluorescence-activated cell-sorting (FACS) was used to determine the cellular uptake of Cy5p53Tet. MCF7 and MDA-MB-468 cells were seeded in six-well plates at a density of 5×10^5 cells/well and incubated at 37° C. overnight. On the following day, media were replaced with fresh media containing vehicle control or 100 or 500 nM Cy5p53Tet and further incubated at 37° C. for 2 h. Cells were washed two times with PBS and trypsinized at 37° C. for 5 min. Trypsin was neutralized by adding media, and the cell suspension was spun down. Cell pellets were washed with PBS and resuspended in PBS. FACS was performed on a FACScan (BD Biosciences), processing 2×10^4 events for each sample.

## H-CysCy5-RKKRRQRRGEYFTLQIRGRERFEMFRELNEALELK-OH (N-terminal Cy5; Synthetic peptide based on p53 protein) [Cy5p53Tet]
[1]
  uptake of the mtp53ODP in MDA-MB-468 cells compared to MCF7 cells: twofold higher
[2]; 100 nM
  geometric MFI, mtp53-expressing MDA-MB-468 cells vs MCF7 cells: 1.58 fold
[2]; 500 nM
  geometric MFI, mtp53-expressing MDA-MB-468 cells vs MCF7 cells: 1.65 fold
